Laboratory results as given in ChEMBL document CHEMBL1201862, “PubChem BioAssay data set” (2004).
Activity calls are given as the source filed them.

Assays:
[1] = biological target: T1, Small ubiquitin-related modifier 1 (Homo sapiens, UniProt P63165); test: inhibitors of SUMO1 peptide binding, dose response, biochemical, fluorescence polarization, uHTS hits (AID 624382); format: functional; conditions: read-out: IC50_Mean
[2] = biological target: T1, Small ubiquitin-related modifier 1; test: inhibitors of SUMO1 partner interactions, dose response, biochemical, FRET (AID 624383); format: functional; conditions: read-out: IC50_Mean
[3] = biological target: Heat shock protein HSP 90-alpha (Homo sapiens, UniProt P07900); format: functional, organism-based
[4] = system: Vero; test: cells; format: functional; conditions: Chlorocebus sabaeus
[5] = Fluorescence-based cell-based high throughput dose response assay for inhibitors of the interaction of nucleotide-binding oligomerization domain containing 2 (NOD2) and the receptor-interacting serine-threonine kinase 2 (RIPK2).; format: functional; conditions: Homo sapiens
[6] = biological target: Beta Lactamase (Pseudomonas aeruginosa, UniProt Q932Y6); test: beta-lactamase reporter inhibitor potency, dose response, artefact control for NOD2-RIPK2 interaction inhibitor project, BLA reporter cells, FRET fluorescence (AID 651552); format: functional, cell-based
[7] = biological target: Paired box protein Pax-8 (Homo sapiens, UniProt Q06710); test: inhibitors of PAX8-driven TPO luciferase reporter, dose response, RMG-I cells, cherry-pick (AID 687027); format: functional, cell-based;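 further: luciferase reporter driven by Pax8 target thyroperoxidase promoter measured by SteadyGlo luminescence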
[8] = non-specific cell cytotoxicity, dose response, cytotoxicity control for PAX8 inhibitor project, plate reader, dry powder samples (AID 743021); format: functional, cell-based
[9] = biological target: Sentrin-specific protease 1 (Homo sapiens, UniProt Q9P0U3); test: Dose response confirmation of small molecule inhibitors of the catalytic domain of the SUMO protease, SENP1 in a FRET assay.; format: functional; conditions: read-out: IC50_Mean
[10] = Luminescence Cell-Based Dose Confirmation HTS to Identify Activators of 5'UTR Stem-Loop Driven Alpha-Synuclein mRNA Translation in H4 Neuroglioblastoma Cells. [Related pubchem assays: 1829 (Project Summary), 1814 (Primary HTS)]; format: functional
[11] = Luminescence Cell-Based Dose Response HTS to Identify Activators of Luciferase Translation or Activity in H4 […] Cells. [Related pubchem assays: 1829 (Project Summary), 1814 (Primary HTS)]; format: functional
[12] = cells; format: functional, cell-based
[13] = system: H4; test: Luminescence Cell-Based Dose Response HTS to Identify Activators of 5'UTR Stem-Loop Driven Prion Protein mRNA Translation in H4 Neuroglioblastoma Cells. [Related pubchem assays: 1829 (Project Summary), 1814 (Primary HTS)]; format: functional; conditions: Homo sapiens
[14] = cells; format: functional, cell-based; remark: listed apart in the source
[15] = biological target: ADP-ribosylation factor GTPase-activating protein 1 (Rattus norvegicus, UniProt Q62848); test: Fluorescence polarization-based biochemical high throughput dose response screening assay to identify inhibitors of ADP-ribosylation factor GTPase activating protein 1 (ARFGAP1).; format: functional
ADP-ribosylation factor GTPase-activating protein 1, sequence (Q62848 whole entry): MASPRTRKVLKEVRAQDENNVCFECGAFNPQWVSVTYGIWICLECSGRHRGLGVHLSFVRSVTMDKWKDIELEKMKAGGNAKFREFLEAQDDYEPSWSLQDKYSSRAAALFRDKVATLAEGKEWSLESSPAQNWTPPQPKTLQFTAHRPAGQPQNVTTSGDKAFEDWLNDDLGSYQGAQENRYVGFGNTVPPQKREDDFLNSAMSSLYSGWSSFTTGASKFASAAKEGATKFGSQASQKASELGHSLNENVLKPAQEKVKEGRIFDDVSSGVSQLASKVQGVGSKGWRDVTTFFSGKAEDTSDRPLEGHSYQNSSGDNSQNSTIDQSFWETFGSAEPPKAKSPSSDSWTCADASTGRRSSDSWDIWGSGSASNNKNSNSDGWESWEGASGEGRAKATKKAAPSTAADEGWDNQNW

T1 sequence (P63165 whole entry): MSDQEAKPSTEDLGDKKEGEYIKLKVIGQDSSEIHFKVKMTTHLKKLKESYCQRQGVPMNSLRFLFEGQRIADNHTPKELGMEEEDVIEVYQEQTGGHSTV
Paired box protein Pax-8, sequence (Q06710 whole entry): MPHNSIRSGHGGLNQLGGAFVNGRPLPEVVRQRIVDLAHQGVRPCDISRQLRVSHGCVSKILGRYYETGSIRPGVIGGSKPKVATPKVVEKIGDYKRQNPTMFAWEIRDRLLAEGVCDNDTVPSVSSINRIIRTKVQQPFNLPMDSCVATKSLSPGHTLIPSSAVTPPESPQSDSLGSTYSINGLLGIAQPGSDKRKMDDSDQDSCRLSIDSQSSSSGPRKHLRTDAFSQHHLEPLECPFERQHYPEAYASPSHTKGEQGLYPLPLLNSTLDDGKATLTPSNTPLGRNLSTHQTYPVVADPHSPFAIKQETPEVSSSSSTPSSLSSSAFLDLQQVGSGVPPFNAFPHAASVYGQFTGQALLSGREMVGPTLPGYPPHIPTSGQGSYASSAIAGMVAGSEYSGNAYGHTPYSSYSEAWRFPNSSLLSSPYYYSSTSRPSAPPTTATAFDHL
Beta Lactamase, sequence (Q932Y6 whole entry): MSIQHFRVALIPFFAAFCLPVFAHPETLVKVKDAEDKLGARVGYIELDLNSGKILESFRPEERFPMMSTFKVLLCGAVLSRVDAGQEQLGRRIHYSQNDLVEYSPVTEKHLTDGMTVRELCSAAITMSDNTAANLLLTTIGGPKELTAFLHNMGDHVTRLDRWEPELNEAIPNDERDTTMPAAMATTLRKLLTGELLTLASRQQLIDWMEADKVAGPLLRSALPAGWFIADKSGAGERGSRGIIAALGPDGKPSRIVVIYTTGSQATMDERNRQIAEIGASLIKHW
Sentrin-specific protease 1, sequence (Q9P0U3 whole entry, the tested form may be a part): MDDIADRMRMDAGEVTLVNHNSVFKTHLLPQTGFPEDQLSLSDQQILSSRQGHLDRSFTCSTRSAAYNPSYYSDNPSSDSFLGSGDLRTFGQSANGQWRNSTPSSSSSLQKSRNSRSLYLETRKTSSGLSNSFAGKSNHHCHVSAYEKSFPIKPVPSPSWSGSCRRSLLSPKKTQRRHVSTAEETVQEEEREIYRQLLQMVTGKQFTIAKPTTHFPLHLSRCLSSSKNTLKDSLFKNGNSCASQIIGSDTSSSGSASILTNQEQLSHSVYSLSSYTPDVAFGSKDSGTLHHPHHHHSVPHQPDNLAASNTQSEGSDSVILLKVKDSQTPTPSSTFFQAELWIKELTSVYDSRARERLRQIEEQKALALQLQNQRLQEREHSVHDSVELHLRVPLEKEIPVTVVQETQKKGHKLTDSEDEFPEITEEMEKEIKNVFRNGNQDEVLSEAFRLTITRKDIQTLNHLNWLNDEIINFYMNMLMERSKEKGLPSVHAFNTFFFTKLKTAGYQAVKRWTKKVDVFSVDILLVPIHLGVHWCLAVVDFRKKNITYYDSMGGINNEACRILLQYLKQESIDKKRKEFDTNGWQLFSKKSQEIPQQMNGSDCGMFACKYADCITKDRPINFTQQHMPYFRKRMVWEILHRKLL

## CC(=O)c1cccc(NC(=O)c2cccc3c(-c4cccc(C(N)=O)c4)coc23)c1
[1]
  IC50: > 66.6 µM (inactive)
[2]
  IC50: 20.4 µM (inactive)

## COC(=O)C1=C(C(=O)OC)C2OC1c1cc3ccccc3cc12
[3]
  AC50: 1.59 µM (active)
[4]
  CC50: > 25 µM (active)
[5]
  IC50: 1.63 µM (active)
[6]
  IC50: 10.1 µM (inactive)
[7]
  AC50: 5.41 µM (active)
[8]
  AC50: 23 µM (active)

## COc1ccc(OC)c(CCNC(=O)c2ccc3c(=O)[nH]c4c(C(=O)NC(C)C)sc(=S)n4c3c2)c1
[9]
  IC50: 20.9 µM (inactive)

## Cc1ccc2nc(SCC(=O)c3ccccc3)nc(=O)n2c1
[10]
  EC50: 33.8 µM (active)
[11]
  EC50: 11 µM (active)
[12]
  EC50: > 350 µM (not active)
[13]
  EC50: 24 µM (active)
[14]
  EC50: 37.8 µM (active)
[15]
  IC50: 52.5 µM (inactive)
